Values after ≈ are worked out from the molar mass of the structure shown. Active and inactive are the calls of the source. No cut-off for these calls is given here.
What was measured:
[1] = tested on: Enterococcus; assay: Antibacterial activity against Enterococcus NR 31903 assessed as reduction in bacterial growth incubated for 16 to 18 hrs by broth microdilution method; assay type: functional; settings: time 16-18 hrs
[2] = tested on: Klebsiella pneumoniae; assay: Antibacterial activity against Klebsiella pneumoniae BAA 1705 assessed as reduction in bacterial growth incubated for 16 to 18 hrs by broth microdilution method; assay type: functional; settings: time 16-18 hrs
[3] = tested on: Acinetobacter baumannii; assay: Antibacterial activity against Acinetobacter baumannii BAA 1605 assessed as reduction in bacterial growth incubated for 16 to 18 hrs by broth microdilution method; assay type: functional; settings: time 16-18 hrs
[4] = tested on: Escherichia coli; assay: Antibacterial activity against Escherichia coli ATCC 25922 assessed as reduction in bacterial growth incubated for 16 to 18 hrs by broth microdilution method; assay type: functional; settings: time 16-18 hrs
[5] = tested on: Staphylococcus aureus; assay: Antibacterial activity against chloramphenicol resistant Staphylococcus aureus NRS 129 assessed as reduction in bacterial growth incubated for 16 to 18 hrs by broth microdilution method; assay type: functional; settings: time 16-18 hrs
[6] = tested on: Staphylococcus aureus; assay: Antibacterial activity against methicillin/levoflaxacin/meropenem/erythromycin resistant Staphylococcus aureus NRS 192 assessed as reduction in bacterial growth incubated for 16 to 18 hrs by broth microdilution method; assay type: functional; settings: time 16-18 hrs
[7] = tested on: Staphylococcus aureus; assay: Antibacterial activity against methicillin/levoflaxacin/meropenem resistant Staphylococcus aureus NRS 191 assessed as reduction in bacterial growth incubated for 16 to 18 hrs by broth microdilution method; assay type: functional; settings: time 16-18 hrs
[8] = tested on: Staphylococcus aureus; assay: Antibacterial activity against methicillin/levoflaxacin/meropenem resistant Staphylococcus aureus NRS 193 assessed as reduction in bacterial growth incubated for 16 to 18 hrs by broth microdilution method; assay type: functional; settings: time 16-18 hrs
[9] = tested on: Staphylococcus aureus; assay: Antibacterial activity against methicillin/levoflaxacin/meropenem resistant Staphylococcus aureus NRS 186 assessed as reduction in bacterial growth incubated for 16 to 18 hrs by broth microdilution method; assay type: functional; settings: time 16-18 hrs
[10] = tested on: Staphylococcus aureus; assay: Antibacterial activity against methicillin/levoflaxacin/vancomycin/meropenem/gentamycin/spectinomycin/teicoplanin resistant Staphylococcus aureus VRS 4 assessed as reduction in bacterial growth incubated for 16 to 18 hrs by broth microdilution method; assay type: functional; settings: time 16-18 hrs
[11] = tested on: Enterococcus; assay: Antibacterial activity against vancomycin sensitive/methicillin resistant Enterococcus NR 31884 assessed as reduction in bacterial growth incubated for 16 to 18 hrs by broth microdilution method; assay type: functional; settings: time 16-18 hrs
[12] = tested on: Enterococcus; assay: Antibacterial activity against vancomycin sensitive/methicillin resistant Enterococcus NR 31885 assessed as reduction in bacterial growth incubated for 16 to 18 hrs by broth microdilution method; assay type: functional; settings: time 16-18 hrs
[13] = tested on: Enterococcus; assay: Antibacterial activity against vancomycin sensitive/methicillin resistant Enterococcus NR 31886 assessed as reduction in bacterial growth incubated for 16 to 18 hrs by broth microdilution method; assay type: functional; settings: time 16-18 hrs
[14] = tested on: Enterococcus; assay: Antibacterial activity against vancomycin sensitive/methicillin resistant Enterococcus NR 31887 assessed as reduction in bacterial growth incubated for 16 to 18 hrs by broth microdilution method; assay type: functional; settings: time 16-18 hrs
[15] = tested on: Enterococcus; assay: Antibacterial activity against vancomycin sensitive/methicillin resistant Enterococcus NR 31888 assessed as reduction in bacterial growth incubated for 16 to 18 hrs by broth microdilution method; assay type: functional; settings: time 16-18 hrs
[16] = tested on: Staphylococcus aureus; assay: Bactericidal activity against Staphylococcus aureus ATCC 29213 assessed as reduction in log10 CFU at 2.5 times MIC after 5 mins by time kill assay; assay type: functional
[17] = tested on: Staphylococcus aureus; assay: Bactericidal activity against Staphylococcus aureus ATCC 29213 assessed as reduction in log10 CFU at 10 times MIC after 5 mins by time kill assay; assay type: functional
[18] = tested on: Staphylococcus aureus; assay: Bactericidal activity against Staphylococcus aureus ATCC 29213 assessed as reduction in log10 CFU at 10 time MIC after 1 hr by time kill assay; assay type: functional
[19] = tested on: Staphylococcus aureus; assay: Bactericidal activity against Staphylococcus aureus ATCC 29213 assessed as inhibition of bacterial regrowth at 10 time MIC after 24 hrs by time kill assay; assay type: functional, organism-based
[20] = tested on: Staphylococcus aureus; assay: Antibacterial activity against Staphylococcus aureus ATCC 29213 infected in mouse J774A.1 cells assessed as reduction in intracellular bacterial cells at 5 times MIC incubated for 24 hrs followed by re-plating on TSA plate and measured after 18 to 24 hrs; assay type: functional
[21] = tested on: Staphylococcus aureus; assay: Synergistic antibacterial activity against Staphylococcus aureus ATCC 29213 assessed as reduction in bacterial growth incubated for 24 hrs in presence of linezolid by checkerboard method; assay type: functional
[22] = tested on: Staphylococcus aureus; assay: Synergistic antibacterial activity against Staphylococcus aureus ATCC 29213 assessed as reduction in bacterial growth incubated for 24 hrs in presence of levofloxacin by checkerboard method; assay type: functional
[23] = tested on: Staphylococcus aureus; assay: Synergistic antibacterial activity against Staphylococcus aureus ATCC 29213 assessed as reduction in bacterial growth incubated for 24 hrs in presence of minocycline by checkerboard method; assay type: functional
[24] = tested on: Staphylococcus aureus; assay: Synergistic antibacterial activity against Staphylococcus aureus ATCC 29213 assessed as reduction in bacterial growth incubated for 24 hrs in presence of rifampicin by checkerboard method; assay type: functional
[25] = tested on: Staphylococcus aureus; assay: Synergistic antibacterial activity against Staphylococcus aureus ATCC 29213 assessed as reduction in bacterial growth incubated for 24 hrs in presence of vancomycin by checkerboard method; assay type: functional
[26] = tested on: Staphylococcus aureus; assay: Synergistic antibacterial activity against Staphylococcus aureus ATCC 29213 at 1 time MIC after 24 hrs in presence of gentamicin by time kill assay; assay type: functional
[27] = tested on: Staphylococcus aureus; assay: Synergistic antibacterial activity against Staphylococcus aureus ATCC 29213 at 1 time MIC after 24 hrs in presence of linezolid by time kill assay; assay type: functional
[28] = tested on: Staphylococcus aureus; assay: Post antibiotic effect against Staphylococcus aureus ATCC 29213 assessed as time required for 1 log10 increase in CFU at 10 times MIC incubated for 1 hr followed by replacement with drug free medium and measured every 1 hr (reference value: 2 hrs); assay type: functional
[29] = tested on: Staphylococcus aureus; assay: Post antibiotic effect against Staphylococcus aureus ATCC 29213 at 1 time MIC incubated for 1 hr followed by replacement with drug free medium and measured every 1 hr (reference value: 0 hr); assay type: functional
[30] = tested on: Staphylococcus aureus; assay: Post antibiotic effect against Staphylococcus aureus ATCC 29213 at 10 times MIC incubated for 1 hr followed by replacement with drug free medium and measured every 1 hr (reference value: 0 hr); assay type: functional
[31] = tested on: Staphylococcus aureus; assay: Bactericidal activity against Staphylococcus aureus ATCC 29213 assessed as increase in dead bacterial cells at 2.5 times MIC after 30 mins by confocal laser scanning microscopy analysis; assay type: functional, organism-based
[32] = tested on: Staphylococcus aureus; assay: Bactericidal activity against Staphylococcus aureus ATCC 29213 assessed as visible cell destruction at 2.5 times MIC after 30 mins by scanning electron microscopy analysis; assay type: functional, organism-based
[33] = tested on: Staphylococcus aureus; assay: Bactericidal activity against Staphylococcus aureus ATCC 29213 assessed as increase in extracellular ATP level after 1 hr by ATP bioluminescence assay; assay type: functional, organism-based; settings: DDE = dose-dependent effect
[34] = tested on: Staphylococcus aureus; assay: Antibacterial activity against Staphylococcus aureus ATCC 29213 infected in BALB/c mouse neutropenic thigh infection model assessed as reduction in thigh bacterial load at 50 mg/kg, ip pre-infected with bacteria for 3 hrs followed by compound addition twice at a interval of 3 hrs and measured after 24 hrs; assay type: functional
[35] = tested on: Staphylococcus aureus; assay: Synergistic antibacterial activity against Staphylococcus aureus ATCC 29213 assessed as fractional inhibitory concentration incubated for 24 hrs in presence of gentamycin by checkerboard method; assay type: functional
[36] = tested on: Staphylococcus aureus; assay: Synergistic antibacterial activity against Staphylococcus aureus ATCC 29213 assessed as fractional inhibitory concentration incubated for 24 hrs in presence of daptomycin by checkerboard method; assay type: functional
[37] = tested on: Staphylococcus aureus; assay: Synergistic antibacterial activity against Staphylococcus aureus ATCC 29213 assessed as fractional inhibitory concentration incubated for 24 hrs in presence of levofloxacin by checkerboard method; assay type: functional
[38] = tested on: Staphylococcus aureus; assay: microbe, parasite or virus in culture; settings: ATCC 29213
Description: Antibacterial activity against Staphylococcus aureus ATCC 29213 assessed as reduction in bacterial growth incubated for 16 to 18 hrs by broth microdilution method

## COc1cc2oc(-c3ccc(O)cc3O)c(CC=C(C)C)c(=O)c2c(O)c1/C=C/C(C)C [ARTOCARPIN]
[1]
  MIC: 2 µg/mL (≈ 4.58 µM)
[2]
  MIC: > 128 µg/mL
[3]
  MIC: > 128 µg/mL
[4]
  MIC: > 128 µg/mL
[5]
  MIC: 4 µg/mL (≈ 9.16 µM)
[6]
  MIC: 4 µg/mL (≈ 9.16 µM)
[7]
  MIC: 4 µg/mL (≈ 9.16 µM)
[8]
  MIC: 4 µg/mL (≈ 9.16 µM)
[9]
  MIC: 4 µg/mL (≈ 9.16 µM)
[10]
  MIC: 4 µg/mL (≈ 9.16 µM)
[11]
  MIC: 2 µg/mL (≈ 4.58 µM)
[12]
  MIC: 2 µg/mL (≈ 4.58 µM)
[13]
  MIC: 2 µg/mL (≈ 4.58 µM)
[14]
  MIC: 2 µg/mL (≈ 4.58 µM)
[15]
  MIC: 2 µg/mL (≈ 4.58 µM)
[16]
  Activity: 1.4 log10CFU/ml
[17]
  Activity: 2.07 log10CFU/ml
[18]
  Activity: 4.8 log10CFU/ml
[19]
  Activity: Active
[20]
  Activity: 3.25 log10CFU/ml
[21]
  MIC: 1 µg/mL
[22]
  MIC: 2 µg/mL
[23]
  MIC: 1 µg/mL
[24]
  MIC: 2 µg/mL
[25]
  MIC: 2 µg/mL
[26]
  Activity: 100%
[27]
  Activity: 4 log10CFU/ml
[28]
  Time: 24 h
[29]
  PAE: 3 h
[30]
  PAE: 22 h
[31]
  Activity: Active
[32]
  Activity: Active
[33]
  Activity: Dde
[34]
  Activity: 0.6 log10CFU/g
[35]
  FIC: 0.015
[36]
  FIC: 0.25
[37]
  FIC: 0.5
[38]
  MIC: 2 µg/mL (≈ 4.58 µM)

Source: ChEMBL document CHEMBL5137134, “Developing the Natural Prenylflavone Artocarpin from Artocarpus hirsutus as a Potential Lead Targeting Pathogenic, Multidrug-Resistant Staphylococcus aureus, Persisters and Biofilms with No Detectable Resistance” (J Nat Prod, 2022)
